Source: patent publication US20220017572A1, “GEMINOID LIPOPEPTIDE COMPOUNDS AND THEIR USES” (Erasmus University Medical Center Rotterdam, priority 2016, published 2022)
Non-standard residues stand in square brackets, D forms with d. Residues, ends and D or L forms follow the SMILES beside them. C16 = C16 alkyl chain at peptide end (geminoid)

How the values were obtained:
DENV2 protease = biological target: T1, DENV2 protease (Dengue virus type 2, UniProt P14340); experiment: DENV2 protease biochemical assay; conditions: for inhibition at 50 µM / % Inhibition at 50 μM (2): 50 μM inhibitor
T1 construct: The active site of the dengue protease is in the N-terminal part of NS3
T1 sequence (P14340 1476-1653): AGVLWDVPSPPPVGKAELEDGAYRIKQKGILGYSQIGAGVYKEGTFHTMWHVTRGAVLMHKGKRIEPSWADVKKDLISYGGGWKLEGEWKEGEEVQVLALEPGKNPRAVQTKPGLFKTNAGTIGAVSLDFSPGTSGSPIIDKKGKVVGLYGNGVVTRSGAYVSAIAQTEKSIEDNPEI
T1 sequence (P14340 1398-1437): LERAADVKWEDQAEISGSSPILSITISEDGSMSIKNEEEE

DENV2 protease replicon = DENV2 protease replicon assay; type: cell-based; conditions: lowest concentration with observed activity in replicon assay
dengue 2 protease [1] = biological target: T2, dengue 2 protease (Dengue virus type 2, UniProt P14340); experiment: Dengue 2 protease inhibition, hydrolysis of Z-RR-MCA; type: biochemical, dengue 2 virus; design: Activity with inhibitors: unit not given here
T2 construct: The active site of the dengue protease is in the N-terminal part of NS3
T2 sequence (P14340 1476-1653): as the sequence (P14340 1476-1653) above
Experimental: The active site of the dengue protease is in the N-terminal part of NS3 which is also a serine protease with catalytic triad Asp79-His51-Ser135, but requires […] (CF40) for activity; the inhibition reported here was studied on a […] (CF40-GGGGSGGGG-NS3; (SEQ ID NO:54)) which has also been structurally characterized [Erbel et al., 2006; Luo et al. 2008].
Substrate was added in a concentration 10 times the Km, and the inhibitor compounds of type C (C16-KGnK-C16, C16-KAnK-C16, and C16-RAnR-C16) were added in increasing concentrations (1.0, 5.0, 10.0, 20.0, 40.0 μL) from a stock solution of 2 mg in 1 mL DMSO. The residual activity was measured in a Hitachi F2500 spectrofluorimeter, and plots were fitted using the Grafit® software (Erithracus Software, Horley, Surrey, UK). All the assays were calculated by the Morrison equation for competitive inhibition (eq. 1, [Morrison, 1969]). The amount of substrate used for the tight binding titration experiments follow all the requirements, where [S]<<Km for all enzymes, so the Kiapp=Ki.
Range of Proteases Inhibited by Geminoids, Determination of Ki with Z-RR-MCA (Dengue 2 Protease) and Ac-RVRR-MCA (Furin) (SEQ ID NO:60).

dengue 2 protease [2] = biological target: T2, dengue 2 protease; experiment: Dengue 2 protease inhibition in presence of Triton X-100 (detergent test, Nature Protocol); type: biochemical, dengue 2 virus; conditions: 15 μM of inhibitor, 0.05% Triton X-100
Source text: A further investigation of the interactions of the geminoid inhibitors with biological membranes and with membrane-bound proteases is needed. […] The preparation and tests of peptides symmetrically, asymmetrically and singly alkylated with saturated, short (C6), and unsaturated (C18:1) alkyl tails are in progress.

Compound | IC50 (DENV2 protease) | inhibition at 50 µM (DENV2 protease) | Replicon activity [μM] (1) (DENV2 protease replicon) | % Inhibition at 50 μM (2) (DENV2 protease) | other results
CCCCCCCCCCCCCCCCNC(=O)[C@H](CCCCN)NC(=O)[C@H](CCC(N)=O)NC(=O)[C@H](C)NC(=O)[C@H](CCCNC(=N)N)NC(=O)CCCCCCCCCCCCCCC [C16-RAQK-C16] (HELM PEPTIDE1{[CCCCCCCCCCCCCCCC(=O)[*:2]].R.A.Q.K.[CCCCCCCCCCCCCCCCN[*:1]]}$$$$V2.0) | 600 nM | 102% | 10.0 µM |  | 
CCCCCCCCCCCCNC(=O)[C@H](CCCCN)NC(=O)[C@H](CCCCN)NC(=O)[C@H](CCCCN)NC(=O)[C@H](C)NC(=O)CCCCCCCCCCC [C12-AKKK-C12] (HELM PEPTIDE1{[CCCCCCCCCCCC(=O)[*:2]].A.K.K.K.[CCCCCCCCCCCCN[*:1]]}$$$$V2.0) | 300 nM | 98.5% | 0.1 µM |  | 
C16-D-AKAK-L-S-C16: geminoid in shorthand Cp-Zn-Cq, D-AKAK with L-S, SEQ ID NO: 89 (C16-[dA][dK][dA][dK]S-C16) |  |  | 3.0 µM | 108.0% | 
C16-LKAKG-C16: geminoid in shorthand Cp-Zn-Cq, peptide SEQ ID NO: 88 |  |  | 3.0 µM | 98.4% | 
C16-AAQK-C16: geminoid in shorthand Cp-Zn-Cq, peptide SEQ ID NO: 78 |  |  | 5.0 µM | 26.8% | 
C16-AKAK-C16: geminoid in shorthand Cp-Zn-Cq, peptide SEQ ID NO: 74 |  |  | 3.0 µM | 103.7% | 
CCCCCCCCCCCCCCCCNC(=O)[C@H](CCCNC(=N)N)NC(=O)[C@H](C)NC(=O)[C@H](C)NC(=O)[C@H](C)NC(=O)[C@H](CCCNC(=N)N)NC(=O)CCCCCCCCCCCCCCC [C16RA3RC16, n-C15H31C(O)-Arg-(Ala)3-Arg-(n-C16H33).2TFA] (HELM PEPTIDE1{[CCCCCCCCCCCCCCCC(=O)[*:2]].R.A.A.A.R.[CCCCCCCCCCCCCCCCN[*:1]]}$$$$V2.0) |  |  |  |  | Ki (dengue 2 protease [1]): 1300 nM; Activity with inhibitors (dengue 2 protease [1]; 15 μM of inhibitor, 10 μM Z-RR-MCA, pH 9.0, 37° C., initial activity in UAF/min): 55; % recovery in presence of Triton (dengue 2 protease [2]): 50%; Activity with 0.05% Triton (dengue 2 protease [2]; initial activity in UAF/min): 124
CCCCCCCCCCCCCCCCNC(=O)[C@@H](CO)NC(=O)[C@@H](CCCCN)NC(=O)[C@@H](C)NC(=O)[C@@H](CCCCN)NC(=O)[C@@H](CC(C)C)NC(=O)CCCCCCCCCCCCCCC [C16-D-LKAKS-C16] (HELM PEPTIDE1{[CCCCCCCCCCCCCCCC(=O)[*:2]].[dL].[dK].[dA].[dK].[dS].[CCCCCCCCCCCCCCCCN[*:1]]}$$$$V2.0) |  | 97.4% | 3.0 µM |  | 
CCCCCCCCCCCCCCCCNC(=O)[C@H](CO)NC(=O)[C@H](CCCCN)NC(=O)[C@H](C)NC(=O)[C@H](CCCCN)NC(=O)[C@H](CC(C)C)NC(=O)CCCCCCCCCCCCCCC [C16-LKAKS-C16] (HELM PEPTIDE1{[CCCCCCCCCCCCCCCC(=O)[*:2]].L.K.A.K.S.[CCCCCCCCCCCCCCCCN[*:1]]}$$$$V2.0) | 300 nM | 108% | 3.0 µM |  | 
CCCCCCCCCCCCCCCCNC(=O)[C@H](CCCCN)NC(=O)[C@H](CCC(N)=O)NC(=O)[C@H](CCCNC(=N)N)NC(=O)[C@H](C)NC(=O)CCCCCCCCCCCCCCC [C16-ARQK-C16] (HELM PEPTIDE1{[CCCCCCCCCCCCCCCC(=O)[*:2]].A.R.Q.K.[CCCCCCCCCCCCCCCCN[*:1]]}$$$$V2.0) | 300 nM | 95.7% | 5.0 µM |  | 
CCCCCCCCCCCCNC(=O)[C@H](CCCCN)NC(=O)[C@H](CCCCN)NC(=O)[C@H](CCCCN)NC(=O)[C@H](CC(C)C)NC(=O)CCCCCCCCCCC [C12-LKKK-C12] (HELM PEPTIDE1{[CCCCCCCCCCCC(=O)[*:2]].L.K.K.K.[CCCCCCCCCCCCN[*:1]]}$$$$V2.0) | 300 nM | 102% | 0.1 µM |  | 
CCCCCCCCCCCCCCCCNC(=O)[C@H](CCCCN)NC(=O)[C@H](CCCCN)NC(=O)[C@H](CCCCN)NC(=O)[C@H](Cc1ccccc1)NC(=O)CCCCCCCCCCCCCCC [C16-FKKK-C16] (HELM PEPTIDE1{[CCCCCCCCCCCCCCCC(=O)[*:2]].F.K.K.K.[CCCCCCCCCCCCCCCCN[*:1]]}$$$$V2.0) | 200 nM | 95.8% | 5.0 µM |  | 
C16-AKAKG-C16: geminoid in shorthand Cp-Zn-Cq, peptide SEQ ID NO: 87 |  |  | 3.0 µM | 102.3% | 
